Article PMC8699473, “An Easily Expandable Multi-Drug LC-MS Assay for the Simultaneous Quantification of 57 Oral Antitumor Drugs in Human Plasma” (Cancers, 2021)

Assay: Short-term stability in spiked pooled human plasma (bench-top, 4 °C, 56 °C)

SMILES | Short-time stability (1h, 56°C) Accuracy [%] (validation standard 2xLLOV) | Short-time stability (24h, 4°C, without daylight) Accuracy [%] (validation standard 2xLLOV) | Short-time stability (24h, RT, with daylight) Accuracy [%] (validation standard 2xLLOV) | Short-time stability (24h, RT, without daylight) Accuracy [%] (validation standard 2xLLOV) | Short-time stability (1h, 56°C) Accuracy [%] (validation standard LLOV) | Short-time stability (24h, 4°C, without daylight) Accuracy [%] (validation standard LLOV) | Short-time stability (24h, RT, with daylight) Accuracy [%] (validation standard LLOV) | Short-time stability (24h, RT, without daylight) Accuracy [%] (validation standard LLOV) | Short-time stability (1h, 56°C) Accuracy [%] (validation standard MOV) | Short-time stability (24h, 4°C, without daylight) Accuracy [%] (validation standard MOV) | Short-time stability (24h, RT, with daylight) Accuracy [%] (validation standard MOV) | Short-time stability (24h, RT, without daylight) Accuracy [%] (validation standard MOV) | Short-time stability (1h, 56°C) Accuracy [%] (validation standard ULOV) | Short-time stability (24h, 4°C, without daylight) Accuracy [%] (validation standard ULOV) | Short-time stability (24h, RT, with daylight) Accuracy [%] (validation standard ULOV) | Short-time stability (24h, RT, without daylight) Accuracy [%] (validation standard ULOV)
O=c1[nH]c(=O)n([C@H]2C[C@H](O)[C@@H](CO)O2)cc1C(F)(F)F [Trifluridine] | -6.6% | 103.5% | 72.7% | 76.2% | -89.2% | 83.6% | 45.6% | 36.1% | 28.1% | 96.3% | 78.0% | 75.3% | 23.2% | 85.5% | 66.9% | 67.3%
COc1cc2c(Nc3ccc(Br)cc3F)ncnc2cc1OCC1CCN(C)CC1 [Vandetanib] | 44.7% | 99.4% | 97.2% | 94.8% | 24.9% | 91.7% | 81.4% | 80.3% | 49.3% | 101.6% | 95.8% | 95.1% | 41.3% | 88.8% | 83.1% | 83.3%
CCCS(=O)(=O)Nc1ccc(F)c(C(=O)c2c[nH]c3ncc(-c4ccc(Cl)cc4)cc23)c1F [Vemurafenib] | 41.6% | 93.0% | 92.7% | 85.9% | 34.3% | 90.0% | 93.0% | 82.9% | 39.7% | 100.4% | 89.3% | 92.1% | 34.6% | 93.8% | 91.3% | 88.2%
CC1(C)CCC(CN2CCN(c3ccc(C(=O)NS(=O)(=O)c4ccc(NCC5CCOCC5)c([N+](=O)[O-])c4)c(Oc4cnc5[nH]ccc5c4)c3)CC2)=C(c2ccc(Cl)cc2)C1 [Venetoclax] | 34.5% | 102.9% | 98.6% | 95.7% |  | 88.8% | 112.5% | 102.7% | 26.4% | 100.5% | 96.8% | 98.0% | 22.4% | 99.7% | 94.1% | 92.7%
CCC1=C[C@@H]2CN(C1)Cc1c([nH]c3ccccc13)[C@@](C(=O)OC)(c1cc3c(cc1OC)N(C)[C@H]1[C@@](O)(C(=O)OC)[C@H](OC(C)=O)[C@]4(CC)C=CCN5CC[C@]31[C@@H]54)C2 [Vinorelbine] | 42.2% | 88.7% | 78.0% | 79.3% | 67.0% | 96.3% | 98.2% | 96.4% | 37.2% | 93.6% | 66.8% | 70.0% | 29.6% | 91.1% | 62.0% | 57.4%
CS(=O)(=O)c1ccc(C(=O)Nc2ccc(Cl)c(-c3ccccn3)c2)c(Cl)c1 [Vismodegib] | 63.8% | 105.0% | 114.6% | 117.6% | 34.2% | 87.2% | 96.1% | 99.6% | 65.7% | 105.3% | 111.1% | 114.6% | 54.4% | 94.5% | 103.5% | 104.5%
